9 compounds from PubChem BioAssay (NCI) can be followed below.

The structures appear in SMILES notation.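 Test compounds were applied to cells in 96-well plates for 48 hours at 5 doses. Abbreviation: GI50, concentration required for 50% inhibition of growth. TGI: total growth inhibition.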

Some test systems named below: A498 renal; A549 NSCLC; DU-145 prostate; HCT-15 colon; HOP-62 NSCLC; HS 578T breast; HT29 colon; MALME-3M melanoma; SK-MEL-2 melanoma; UACC-257 melanoma.
Common to all, as to test: DTP human tumour cell line panel, 48 h

`Nc1nc(N)c2cc(Sc3ccc4ccccc4c3)ccc2n1`: the TGI with A498 renal came to 17.4 µM; in the assay with A549 NSCLC it was 12 µM; with DU-145 prostate, 6.01 µM; in the assay on HCT-15 colon it was 2.55 µM; in the assay with HOP-62 NSCLC it was 4.35 µM; in the assay on HS 578T breast, 9.17 µM. Also, the TGI amounted to 3.7 µM in the assay on HT29 colon, 2.86 µM with MALME-3M melanoma, 3.42 µM in the assay with SK-MEL-2 melanoma and 4.61 µM with UACC-257 melanoma. Also, the GI50 is 1.29 µM with MALME-3M melanoma and 1.68 µM with SK-MEL-2 melanoma.
With `O=[N+]([O-])c1cc([As](Br)c2ccc(O)c([N+](=O)[O-])c2)ccc1O`, the TGI with A498 renal was 3.74 µM; in the assay with A549 NSCLC, 7.02 µM; in the assay on DU-145 prostate it was 4.59 µM; in the assay on HCT-15 colon it was more than 20.8 µM; with HOP-62 NSCLC it was 4.87 µM; in the assay with HS 578T breast it was 5.93 µM. In addition, the TGI with HT29 colon came out at 25 µM; in the assay with MALME-3M melanoma, 2.38 µM; in the assay with SK-MEL-2 melanoma it was 2.59 µM; in the assay on UACC-257 melanoma it was 3.33 µM.
On to `O=C1/C(=C\c2ccco2)Oc2ccccc21`, for which the concentration for total growth inhibition (TGI) in the assay on A498 renal, in the assay on A549 NSCLC, with DU-145 prostate, in the assay on HCT-15 colon, in the assay with HOP-62 NSCLC and in the assay with HS 578T breast was more than 100 µM each time. Also, the concentration for total growth inhibition (TGI) in the assay with HT29 colon, with SK-MEL-2 melanoma and with UACC-257 melanoma was more than 100 µM in each case.
Regarding `COc1ccc(C(=O)c2sc3nc(-c4ccccc4OC)ccc3c2N)cc1OC`, the GI50 in the assay on A498 renal was 3.38 µM; with A549 NSCLC, 5.85 µM; in the assay on DU-145 prostate it was 27.9 µM; in the assay with HCT-15 colon it was 6.13 µM; with HOP-62 NSCLC it was 18.7 µM; in the assay with HS 578T breast, 4.26 µM. The GI50 is 4.9 µM with HT29 colon, 3.65 µM in the assay with MALME-3M melanoma and 6.05 µM in the assay on UACC-257 melanoma. For the same compound, the concentration for total growth inhibition (TGI) was more than 100 µM in the assay with A498 renal; more than 100 µM with A549 NSCLC; more than 100 µM in the assay on DU-145 prostate; more than 100 µM with HCT-15 colon; more than 100 µM in the assay on HOP-62 NSCLC; 74.2 µM with HS 578T breast. The TGI in the assay on HT29 colon, in the assay on MALME-3M melanoma and with UACC-257 melanoma was more than 100 µM each time.
On to `CC(/C=C/C(O)=C1/C(=O)CNC1=O)=C\[C@@H](C)[C@H]1O[C@@]2(C)O[C@H](C(=O)[C@@H]3O[C@@]32C)[C@@H]1C`, for which the TGI in the assay with A498 renal came to 29.1 µM; with DU-145 prostate it was 40.1 µM; in the assay with HCT-15 colon, 49.6 µM; in the assay on HOP-62 NSCLC, 43.1 µM; in the assay on HS 578T breast it was 52.1 µM; in the assay on HT29 colon, 47 µM. Further, the TGI in the assay on MALME-3M melanoma turned out to be 38 µM; with SK-MEL-2 melanoma, 50.1 µM; with UACC-257 melanoma it was 35.6 µM.
Consider `C=C(CN1CCc2c([nH]c3ccccc23)C1)c1ccc(C(=O)Nc2ccccc2N)cc1`, for which the GI50 in the assay on A549 NSCLC is 4.85 µM; with DU-145 prostate it was 3.85 µM; in the assay on HCT-15 colon it was 3.5 µM; in the assay with HOP-62 NSCLC, 4.08 µM; in the assay with HS 578T breast, 4.75 µM; in the assay with SK-MEL-2 melanoma, 4.54 µM. Further, the GI50 with UACC-257 melanoma is 3.2 µM. The TGI with A549 NSCLC came to 32 µM; in the assay on DU-145 prostate, 13.9 µM; in the assay with HCT-15 colon it was 28.1 µM; in the assay on HOP-62 NSCLC, 20.8 µM; with HS 578T breast it was 23.3 µM; in the assay on SK-MEL-2 melanoma, 22 µM. In the assay with UACC-257 melanoma, this compound displayed a total growth inhibition concentration (TGI) of 11.6 µM.
Turning to `COc1ccc(-c2cnnn2-c2nonc2-n2cccc2)cc1OC`, the GI50 with A498 renal was 2.95 µM; in the assay on A549 NSCLC, 4.15 µM; with DU-145 prostate, 7.95 µM; with HCT-15 colon, 2.38 µM; in the assay on HOP-62 NSCLC it was 5.21 µM; with HS 578T breast, 4.55 µM. In addition, the GI50 was 3.31 µM in the assay on HT29 colon, 3.86 µM with MALME-3M melanoma and 9.61 µM with UACC-257 melanoma. Moreover, the TGI is 23 µM in the assay with A498 renal; more than 100 µM with A549 NSCLC; more than 100 µM with DU-145 prostate; more than 100 µM in the assay on HCT-15 colon; more than 100 µM in the assay with HOP-62 NSCLC; 75.7 µM with HS 578T breast. The TGI in the assay with HT29 colon, with MALME-3M melanoma and with UACC-257 melanoma was more than 100 µM throughout.
Regarding `COc1cc(C2=NN(C(C)=O)C(c3cc(OC)c(OC)c(OC)c3)C2)ccc1O` (centres undefined), the GI50 with A498 renal is 0.26 µM; with A549 NSCLC, 0.579 µM; with DU-145 prostate, 0.383 µM; in the assay with HCT-15 colon, 0.392 µM; in the assay with HOP-62 NSCLC, 0.571 µM; in the assay on HS 578T breast, 0.275 µM. Moreover, the figures for the GI50 in the assay with HT29 colon and with UACC-257 melanoma were 0.358 µM and more than 93.6 µM, respectively. The TGI was 7.52 µM in the assay with A498 renal; more than 100 µM in the assay on A549 NSCLC; more than 33.9 µM with DU-145 prostate; more than 100 µM in the assay with HCT-15 colon; more than 100 µM in the assay with HOP-62 NSCLC; more than 100 µM in the assay with HT29 colon. Also, the total growth inhibition concentration (TGI) in the assay on SK-MEL-2 melanoma and in the assay on UACC-257 melanoma was more than 100 µM each time.
For `C=C1C(=O)O[C@H]2[C@H]1CC/C(Cn1cc(-c3ccc(N)cc3)nn1)=C\CC[C@@]1(C)O[C@@H]21`, the GI50 in the assay with A498 renal is 10.4 µM; in the assay with A549 NSCLC, 11.9 µM; with DU-145 prostate it was 3.65 µM; with HCT-15 colon, 1.42 µM; in the assay on HOP-62 NSCLC, 10.2 µM; in the assay with HS 578T breast, 4.46 µM. In addition, the GI50 with HT29 colon was 2.14 µM; in the assay with MALME-3M melanoma, 2.18 µM; in the assay on SK-MEL-2 melanoma it was 10.6 µM. In addition, the TGI in the assay on A498 renal came out at 26.1 µM; with A549 NSCLC it was 28.1 µM; in the assay on DU-145 prostate, 14.1 µM; with HCT-15 colon, 3.37 µM; in the assay on HOP-62 NSCLC, 23.8 µM; in the assay with HS 578T breast, 27.4 µM. In addition, the concentration for total growth inhibition (TGI) with HT29 colon is 5.47 µM; in the assay on MALME-3M melanoma, 5.42 µM; in the assay with SK-MEL-2 melanoma, 28.9 µM.
